Assays:
MonoMac-1 AML cells = assay: In vivo xenotransplantation assay, human AML cells in bones by flow cytometry; set-up: species or system NSG mice; conditions: 5 mg/kg apomorphine and 30 mg/kg cytarabine, intraperitoneally, 5 days
Protocol: FIG. 4. […] Bulsulfan-conditioned NSG adult mice were intravenously injected with 1×10^6 MonoMac-1 AML cells. One week after transplantation, mice were treated with 5 mg/kg apomorphine (APO) and/or 30 mg/kg cytarabine (CYT) daily for 5 days. Mice were culled and bones were harvested. Human leukemia cells were detected based on the expression of hCD45 on the surface membrane by flow cytometry. Normalized number of human AML cells against control-treated mice is represented. Bars correspond to mean values and error bars to SEM. ** p<0.01; **** p<0.0001. hAML: #human AML cells (referred to 15 control). CTR: Control.
In order to verify that the synergic cytotoxic effect was also detectable in vivo, pharmacological-conditioned NSG mice were transplanted intravenously with 1×10^6 MonoMac-1 AML cells. One week after transplantation, mice were treated for 5 days with 5 mg/kg apomorphine and/or 30 mg/kg cytarabine, both of them intraperitoneally. Mice were culled and bones were harvested and analyzed for human leukemia by flow cytometry.

[1] = system: KG-1 and Ara-C-resistant KG-1; assay: Sensitivity to HTR1 antagonists, parental versus Ara-C-resistant cells, cell viability by flow cytometry; type: cell-based, human; conditions: KG-1 parental vs Ara-C-resistant KG-1; 72 h
[2] = system: AML cell line (MonoMac-1); assay: Cell viability by flow cytometry 72 h after treatment, HTR1 antagonist plus cladribine, fludarabine or methotrexate, combination index; type: cell-based, human
Protocol: FIGS. 8A and 8B. […] MonoMac-1 cells were cultured for 72 h in a complete RPMI medium in the presence of 5, 10 μM apomorphine (APO) or methiothepin (MET), and 10, 27, 55 nM cladribine (CLD). FIG. 8A. Combination index (CI) value of CLD and APO combination. FIG. 8B. CI value of CLD and MET combination.
FIGS. 9A and 9B. […] MonoMac-1 cells were cultured for 72 h in a complete RPMI medium in the presence of 5, 10 μM apomorphine (APO) or methiothepin (MET), and 200, 500, 1000 nM fludarabine (FLD). FIG. 9A. CI value of FLD and APO combination. FIG. 9B. CI value of FLD and MET combination.
FIG. 10. […] MonoMac-1 cells were cultured for 72 h in a complete RPMI medium in the presence of 5, 10 μM apomorphine (APO), and 2.5, 6.25, 12.5 nM methotrexate (MTX). CI value of MTX and APO combination.
(§1) Synergy is determined herein by means of the Combination Index Model, described previously (Chou T C, Pharmacological Reviews 58: 621-681, 2006). The CI was measured using Compusyn open software. CI values below 1 indicate synergism. CI values about 1 indicate additivism and CI values above 1 indicate antagonisms.
Cladribine is a cytostatic drug indicated for myeloid neoplasias. […] 72 h after treatment, cell viability was measured by flow cytometry (live cells according to the correct FSC-SSC profile, 7-AAD negativity and Hoechst 33342 positivity, and volumetrically counted).
The potential cytotoxic interaction of fludarabine with HTR1 antagonists was also examined on the same experimental conditions of the example 8. […] 72 h after treatment, cell viability was measured by flow cytometry (live cells according to the correct FSC-SSC profile, 7-AAD negativity and Hoechst 33342 positivity, and volumetrically counted).
Finally, the interaction of the antineoplastic drug methotrexate with HTR1 antagonist was studied. […] 72 h after treatment, cell viability was measured by flow cytometry (live cells according to the correct FSC-SSC profile, 7-AAD negativity and Hoechst 33342 positivity, and volumetrically counted).

[3] = system: AML cell lines (TPH-1 and MonoMac1); assay: Cell viability by flow cytometry 72 h after treatment, HTR1 antagonist plus cytarabine, combination index; type: cell-based, human; conditions: in combination with cytarabine, CI below 1 = synergism
Protocol: FIGS. 1A and 1B. […] FIG. 1A. Cell viability was measured by flow cytometry (correct FSC-SSC profile, 7-AAD-, Hoechst33342^low). Normalized number of live cells is graphed. Bars represent the mean value and error bars represent SEM. *** p<0.001; **** p<0.0001. NLC: Number of live cells (referred to control). FIG. 1B. Combination index (CI) value of each combination.
as §1

[4] = system: Sp1 gene expression in HL-60 AML cells; assay: Sp1 mRNA expression by semi-quantitative PCR; type: cell-based, human; conditions: HL-60 cells, 72 h; 10 µM apomorphine, 10 µM methiothepin, 5 µM SB224289
Protocol: FIG. 7. Treatment with HTR1 antagonists decreased Sp1 gene expression. HL-60 AML cells were treated with 10 μM apomorphine (APO), 10 μM methiothepin (MET) or 5 μM SB224289 (SB9) for 72 h. Total RNA was isolated and cDNA was obtained afterwards. Semi-quantitative PCR was performed to detect gene expression. Sp1 gene expression is represented as 2^(−ΔΔCt) using GAPDH as the endogenous control. Bars represent the mean value of triplicates. Error bars correspond to SEM. * p<0.05; **** p<0.0001. ddCt: 2^(−ΔΔCt).
At a gene expression level, the expression of Sp1 mRNA was studied. Sp1 has been implicated with chemotherapeutic resistance (Zhang et al. Mol Cancer 2015; 14:56). HL-60 AML cells were treated for 72 h with 10 µM apomorphine, 10 µM methiothepin and 5 µM SB224289. Total RNA as isolated and mRNA was retrotranscribed to cDNA. Semi-quantitative PCR was performed with specific TaqMan oligo pairs.

[5] = system: AML cell lines (HL-60 and MonoMac-1); assay: Cell viability by flow cytometry 72 h after treatment, HTR1 antagonist plus azacitidine or decitabine, combination index; type: cell-based, human
Protocol: FIGS. 2A and 2B. […] MonoMac-1 cells were cultured for 72 h in a complete RPMI medium in the presence of 2, 5, 10 μM apomorphine (APO) or methiothepin (MET), and 100, 200, 1000 nM azacitidine (AZA). FIG. 2A. Cell viability was measured by flow cytometry (correct FSC-SSC profile, 7-AAD-, Hoechst33342^low). Normalized number of live cells is graphed. Bars represent the mean value and error bars represent SEM. *** p<0.001; **** p<0.0001. NLC: Number of live cells (referred to control). FIG. 2B. Combination index (CI) value of each combination.
FIGS. 3A and 3B. […] Cell viability was measured by flow cytometry (correct FSC-SSC profile, 7-AAD-, Hoechst33342^low). […]
Synergy is determined herein by means of the Combination Index Model, described previously (Chou T C, Pharmacological Reviews 58: 621-681, 2006). The CI was measured using Compusyn open software. […]
Next, the inventors examined the interaction between HTR1 antagonists and azacitidine. […] Cell viability was measured by flow cytometry (live cells according to the correct FSC-SSC profile, 7-AAD negativity and Hoechst 33342 positivity) 72 h after treatment.
Similarly, decitabine was also interrogated for its potential cytotoxic interaction with HTR1 antagonists. […] 72 h after treatment, cell viability was measured by flow cytometry (live cells according to the correct FSC-SSC profile, 7-AAD negativity and Hoechst 33342 positivity).

[6] = system: HL-60 and Ara-C-resistant HL-60; assay: Sensitivity to HTR1 antagonists, parental versus Ara-C-resistant cells, cell viability by flow cytometry; type: cell-based, human; conditions: HL-60 parental vs Ara-C-resistant HL-60; 72 h

Row | SMILES | effect of the combination in in vivo treatment of AML-bearing mice (MonoMac-1 AML cells) | EC50, parental compared to Ara-C-resistant cells [1] | interaction with cladribine (combination index) ([2]; in combination with cladribine) | interaction with fludarabine (combination index) ([2]; in combination with fludarabine) | interaction with methotrexate (combination index) ([2]; in combination with methotrexate, low and high concentrations) | interaction with cytarabine according to the combination index model [3] | Sp1 gene expression [4] | interaction with azacitidine (combination index) ([5]; in combination with azacitidine) | interaction with decitabine (combination index) ([5]; in combination with decitabine) | EC50, parental compared to Ara-C-resistant cells [6]
1 | Nc1ccn([C@@H]2O[C@H](CO)[C@H](O)[C@@H]2O)c(=O)n1 [Ara-C, 4-amino-1-[(2R,3S,4R,5R)-3,4-dihydroxy-5 (hydroxymethyl)oxolan-2-yl]pyrimidin-2-one] | synergistic effect |  |  |  |  |  |  |  |  | 
2 | CN1CCc2cccc3c2[C@H]1Cc1ccc(O)c(O)c1-3 [apomorphine, (6aR)-6-methyl-5,6,6a, 7-tetrahydro-4H-dibenzo[de, g]quinoline-10,11-diol] | synergistic effect | equivalent EC50 values | synergically anti-leukemic effect | synergically antileukemic effect | synergically anti-leukemic effect | act synergically | downregulation of Sp1 gene expression | synergically anti-leukemic effect | synergically anti-leukemic effect | equivalent EC50 values
3 | Cc1nc(-c2ccc(-c3ccc(C(=O)N4CCc5cc6c(cc54)C4(CCN(C)CC4)CO6)cc3)c(C)c2)no1 [SB224289] |  |  |  |  |  |  | downregulation of Sp1 gene expression |  |  | 

Source: patent publication US12109221B2, “Combination therapy for treating cancer” (LEUKOS BIOTECH, S.L., priority 2017, dated 2024)
